Laboratory results as given in US4053635A, “Substituted amides of 3-methyl-4-phenyl-3-butenoic acid, with a high hypolipemizing activity” (Istituto Biochimico Italiano di Loredana Lorenzini S.a.s., priority 1974, dated 1977).

Experiments:
[1] = hypertriglyceridemia from Fructose (Table II); type: in vivo, Sprague-Dawley male rat; details: 200 mg/kg day by gastric probing, 5 days
Protocol: *Animal: Sprague-Dawley male rat, 150 g.; 6 rat sets. Treatment accordin
to E. A. Nikkila et al., Life sci.5,89,1966; substances administered at
the dose of 200 mg/kg day by gastric probing in two daily administrations

[2] = experiments of subchronic toxicity; type: in vivo; details: per os, 150 mg/kg/day and 300 mg/kg/day, 3 or 6 months
Protocol: mg/kg/day. In experiments of subchronic toxicity, the diethylamide of
the doses of 150 mg/kg/day and of 300 mg/kg/day for 3 or 6 months: the […]

[3] = hyperlipemia from diet (Table III); type: in vivo, Sprague-Dawley male rat; details: 200 mg/kg/day per os; for Hepatic Cholesterol ± SE: hyperlipidic diet 4 weeks (diet alone 16.4±0.8); for Hepatic triglycerides ± SE: hyperlipidic diet 4 weeks (diet alone 56.4+3.8); for Triglyceridemia ± ES: hyperlipidic diet 4 weeks (diet alone 117.3±17.7); for Cholesterolemia ± SE: hyperlipidic diet 4 weeks (diet alone 129.9±9.3)
Excerpt: °In parentheses, significativity towards the set treated only with
*Animal: Sprague-Dawley male rat of the initial weight of 120 g (in
parentheses the N. of animals).
Treatment: Hyperlipemia derived from hyperlipidic diet according to Nath N. et al., Nutrition J. 67, 289, 1959; the diet has been administered for 4 weeks. Each drug has been administered at the dose of 200/mg/kg/day per os for 4 weeks.

[4] = hyperlipemia from ethanol (Table V); type: in vivo, Sprague-Dawley male rat; details: gastric intubation; for cholesterolemia: ethyl alcohol 10% 1 week (controls 85±6, ethanol 90±4); for Triglyceridemia ±SE: ethyl alcohol 10% 1 week (controls 87±14, ethanol 238±44)
Protocol: Sprague-Dawley male rat of the average weight of 150 g. ethyl alcohol 10%
in water for 1 week (in parenthesis, the N. of animals). The substances
have been administered by gastric intubation at the dose of 200 and 300
mg/kg/day. In experiments of subchronic toxicity, the diethylamide of […]

[5] = hypertriglyceridemia from ethanol (Table IV); type: in vivo, Sprague-Dawley male rat; details: 300 mg/kg daily, gastric intubation; ethanol twice a day, 4 days (controls 74.20±3.70, ethanol 135.80±13.30)
Protocol: | *Animal: Sprague-Dawley male rat of the average weight of 150 g. | Treatment: 0.31 ml. ethanol in 4 ml. water twice a day (in parenthesis, | the N. of animals) for 4 days. The substances have been provided by | gastric intubation at the daily dose of 300 mg/kg.

[6] = toxicity in the test animal; details: in vivo
[7] = former works (U.S. Pat. No. 3,231,469; Canonica et al.); cited from earlier work
in vivo = details: rat, po, read-out: LD 50 per os in the rat
[8] = 3rd experiment (controls 77.1±12.1, fructose 155.2±19.2)
[9] = 1st experiment (controls 41.7±1.7, fructose 62.9±5.5)
[10] = 2nd experiment (controls 45.6±4.7, fructose 94.0±12.1)
[11] = 4th experiment (controls 45.3±4.5, fructose 87.4±14.4)

Row | Compound | Triglyceridemia ±SE [1, 8] | Hepatic Cholesterol ± SE [3] | Hepatic triglycerides ± SE [3] | Triglyceridemia ± ES [3] | Cholesterolemia ± SE [3] | Triglyceridemia ±SE [5] | Triglyceridemia ±SE [1, 9] | Triglyceridemia ±SE [1, 10] | Triglyceridemia ±SE [1, 11] | LD50 (in vivo) | further results
1 | CCN(CC)C(=O)C/C(C)=C/c1ccccc1 [IIId, Diethylamide of 3-methyl-4-phenyl-3-butenoic acid] | 87.1±13.4 mg/100 ml | 19.4±0.7 mg/g fresh tissue | 25.9±3.8 mg/g fresh tissue | 77.4±7.5 mg/100 ml | 124.9±4.6 mg/100 ml | 90.0±14.83 mg/100 ml | – | – | – | – | tolerability in subchronic toxicity [2]: fairly well tolerated; cholesterolemia ([4]; 200 mg/kg/day): 77±3 mg/100 ml; Triglyceridemia ±SE ([4]; 200 mg/kg/day): 169±20 mg/100 ml; cholesterolemia ([4]; 300 mg/kg/day): 81±3 mg/100 ml; Triglyceridemia ±SE ([4]; 300 mg/kg/day): 117±20 mg/100 ml; toxicity in the test animal [6]: low toxicity
2 | C/C(=C\c1ccccc1)CC(=O)O [I, 3-methyl-4-phenyl-3-butenoic acid] | 100.8±13.8 mg/100 ml | 20.2±0.9 mg/g fresh tissue | 37.7±5.6 mg/g fresh tissue | 91.5±13.6 mg/100 ml | 142.4±7.7 mg/100 ml | 275.11±31.63 mg/100 ml | 42.8±3.7 mg/100 ml | 40.8±4.5 mg/100 ml | 57.6±2.6 mg/100 ml | – | hypolipemic characteristics [7]: interesting hypolipemic characteristics
3 | C/C(=C\c1ccccc1)CC(=O)NC1CCCCC1 [IIIb, Monocyclohexylamide of 3-methyl-4-phenyl-3-butenoic acid] | – | 22.1±1.1 mg/g fresh tissue | 37.5±3.0 mg/g fresh tissue | 81.5±7.9 mg/100 ml | 135.7±11.6 mg/100 ml | – | – | 59.1±7.5 mg/100 ml | – | 3000 mg/kg | –
4 | C/C(=C\c1ccccc1)CC(=O)N1CCOCC1 [IIIe, Morpholide of 3-methyl-4-phenyl-3-butenoic acid] | – | – | – | – | – | – | – | – | 61.1±5.1 mg/100 ml | 1000 mg/kg | –
5 | CCOC(=O)C(C)(C)Oc1ccc(Cl)cc1 [chlofibrate, ethyl ester of 2-(p-chlorophenoxy)-2-methyl propanoic acid, reference compound] | 62.9±7.2 mg/100 ml | 18.5±1 mg/g fresh tissue | 30.3±2.5 mg/g fresh tissue | 60.0±4.3 mg/100 ml | 138.8±10.7 mg/100 ml | 121.50±12.26 mg/100 ml | 42.2±5.4 mg/100 ml | 48.9±2.4 mg/100 ml | 59.1±3.6 mg/100 ml | – | cholesterolemia ([4]; 200 mg/kg/day): 70±3 mg/100 ml; Triglyceridemia ±SE ([4]; 200 mg/kg/day): 183±29 mg/100 ml
6 | C/C(=C\c1ccccc1)CC(=O)N(CCO)CCO [IIIc, Diethanolamide of 3-methyl-4-phenyl-3-butenoic acid] | – | – | – | – | – | – | – | 69.6±3.9 mg/100 ml | – | 1500 mg/kg | –
7 | C/C(=C\c1ccccc1)CC(=O)NCCO [IIIa, Monoethanolamide of 3-methyl-4-phenyl-3-butenoic acid] | – | – | – | – | – | – | 62.9±6.4 mg/100 ml | – | – | – | –
8 | C/C(=C\c1ccccc1)CC(N)=O [II] | – | – | – | – | – | – | – | – | – | – | hypolipemic characteristics [7]: interesting hypolipemic characteristics
